# From patent US20240156764A1, “INHIBITION OF URACIL DNA GLYCOSYLASE IN THE OPEN CONFORMATION” (CASE WESTERN RESERVE UNIVERSITY, priority 2022, published 2024)
# Entries after “also recorded” stand apart in the source; their conditions may differ.
# Legend:
# [1] = target: T1, UDG in human DLD1 colon cancer cell lysate (Homo sapiens, UniProt P13051); assay: DNA cleavage assay with cell-free protein extracts from DLD1 cells; format: biochemical
# T1 construct: IC50 in DLD1 UDG containing cell lysate; other: estimated; effect on 23mer ssDNA generation; DLD1 cell extracts; extracts where UDG was present
# Method: A: human cancer lysates were extracted from DLD1 human colon cancer cell lines. […] 20% polyacrylamide nucleic acid urea gel electrophoresis was used to resolve the DNA bands at room temperature, 200 v for 50 min. DNA products were visualized using a Typhoon Trio+Variable Mode Imager (Amersham Biosciences) with excitation and emission wavelengths set to 532 nm and 585 nm respectively, PMT set to 400, and pixel size resolution set to 100 μm. […] Either uracil DNA (U:A bp) or thymidine DNA (T:A bp) was added to initiate the reaction and incubated for additional 20 min at 37° C. 20% polyacrylamide nucleic acid urea gel electrophoresis was used to resolve the DNA bands. Gel data were analyzed using ImageJ software. DNA bands were corrected using a constant background band intensity subtraction step. Then, percent cleavage was calculated by using fluorescence intensity of the cleaved 23-mer DNA strand divided by the sum of the fluorescence bands (23mer+40mer DNA).
# The reaction was pre-incubated for 20 min at 37° C. before a fluorescently-labeled TAMRA DNA duplex oligo containing a single U:A bp (final 30 nM) was added to each reaction well with a total reaction volume of 50 μL/well. Plate was further incubated for 20 min at 37° C. 5 μL of a denaturing loading dye (20 mg of bromophenol blue, 9.7 ml of formamide plus 300 μL of 10M NaOH) was added to stop each reaction. DNA products from each reaction were resolved on a 20% denaturing polyacrylamide nucleic acid urea gel (5.3 grams of urea was dissolved in 2.3 mL of 5×TBE, 5 mL of 40% bis-acrylamide 29:1 solution). 5×TBE buffer was prepared by dissolving 54 grams of tris base, 28 grams of boric acid, and 4.5 grams of EDTA in a liter of distilled H2O. Gels were processed at 200V for 60 mins at room temperature, in the dark. […] Gel data were analyzed using ImageJ software. […] Then, percent cleavage was calculated by using fluorescence intensity of the cleaved 23-mer DNA strand divided by the sum of the fluorescence bands (23mer+40mer DNA strands)*100 for untreated and treated conditions. […]
# [2] = target: T2, human UDG (Homo sapiens, UniProt P13051); assay: Differential scanning fluorimetry (nanoDSF), intrinsic tryptophan fluorescence and scattering; format: binding; parameters: Full-length UDG at 14 μM in 137 mM NaCl
# Method: (§1) The data for thermophoresis was recorded at 20° C. using the blue LED at 20% and IR-Laser at 40%. The isotherm derived from the raw data and fitted according to the law of mass action. […] Then 2 μL of 10× Sypro dye and 2 μL of ddH20 (Applied biosystems cat #4461141) were added. Monitoring of fluorescence took place for 2 hr (Bioraid CFX96, Hex filter, 25-97° C., 1.6° C./2 min). Negative (−) derivative RFU raw data and plots from the machine were obtained and analyzed. […] Melting temperature (Tm) value was taken directly from the midpoint on the −dRFU/dt vs. temperature graph. Each point on the graph represents an average of three data sets. Y error bars represent the standard deviation.
# Differential scanning fluorimetry (DSF) measurements were performed on a Prometheus NT.48 instrument (NanoTemper Technologies, Munich, Germany). […] The capillaries were filled with 10 μL sample and placed on the sample holder. A temperature gradient of 1° C.·min^−1 from 25 to 90° C. was applied and the intrinsic protein fluorescence at 330 and 350 nm was recorded. Additional aggregation onset temperatures are detected via back-reflection light scattering. […] Therefore, analysis of single wavelength was used to determine the melting temperature.
# Target sequence in this assay (P13051 whole entry): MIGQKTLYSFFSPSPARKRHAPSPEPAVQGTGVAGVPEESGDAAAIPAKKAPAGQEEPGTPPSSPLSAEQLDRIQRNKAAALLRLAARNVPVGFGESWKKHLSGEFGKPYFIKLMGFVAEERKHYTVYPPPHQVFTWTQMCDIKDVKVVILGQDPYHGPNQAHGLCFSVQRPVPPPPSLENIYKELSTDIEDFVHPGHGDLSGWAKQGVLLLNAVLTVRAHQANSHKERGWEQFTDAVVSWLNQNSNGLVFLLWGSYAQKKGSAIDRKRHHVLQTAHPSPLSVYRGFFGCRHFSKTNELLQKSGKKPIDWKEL
# [3] = target: T2, human UDG; assay: UDG protein thermal shift with Sypro orange dye; format: binding; settings: 100 μM ATA
# Method: as §1
# Target sequence in this assay (P13051 94-313 limits assumed): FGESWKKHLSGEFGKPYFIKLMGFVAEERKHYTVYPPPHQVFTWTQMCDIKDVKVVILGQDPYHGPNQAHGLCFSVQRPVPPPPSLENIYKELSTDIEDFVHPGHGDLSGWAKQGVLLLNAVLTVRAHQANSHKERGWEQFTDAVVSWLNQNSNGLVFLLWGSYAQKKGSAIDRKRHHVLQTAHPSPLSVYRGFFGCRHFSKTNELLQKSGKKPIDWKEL
# FIGS. 10(A-D) illustrate UDG thermal shift. A: Uracil DNA hairpin stabilizes UDG protein. […] Melting temperature (Tm) values were taken directly from lowest peak point on the negative dRFU/dt over temperature plots. B: (with uracil DNA): Parallel set of wells on the same plate included uracil-DNA harpin (final […]). Each plate was incubated 60 min at room temperature before the monitoring of fluorescence took place about 2 hr (Biorad CFX96, Hex filter, 25° C.-97C, 1.6° C./2 min). […] Each plate was incubated 60 min at room temperature before the monitoring of fluorescence took place about 2 hr (Biorad CFX96, Hex filter, 25° C.-97° C., increment of 1.6° C./2 min). […]
# T1 sequence (P13051 45-313 limits assumed): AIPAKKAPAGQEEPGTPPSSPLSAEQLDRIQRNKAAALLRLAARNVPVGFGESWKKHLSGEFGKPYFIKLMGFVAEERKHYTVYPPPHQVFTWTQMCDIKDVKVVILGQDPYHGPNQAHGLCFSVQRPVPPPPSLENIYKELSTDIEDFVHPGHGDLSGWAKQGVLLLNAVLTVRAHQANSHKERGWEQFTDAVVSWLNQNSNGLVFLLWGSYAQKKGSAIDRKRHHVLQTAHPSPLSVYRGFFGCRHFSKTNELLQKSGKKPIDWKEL
smiles,measurement,setting,value
"O=C(O)C1=CC(=C(c2ccc(O)c(C(=O)O)c2)c2ccc(O)c(C(=O)O)c2)C=CC1=O [ATA, aurintricarboxylic acid]",effect on 23mer ssDNA generation,"[1]; 12.5 μM ATA, DLD1 cell extracts",minimal effect
same,inhibition of 23mer ssDNA appearance,"[1]; 50 μM ATA, extracts where UDG was present",near-complete inhibition; also recorded: completely inhibited
same,IC50,[1]; read-out: IC50 in DLD1 UDG containing cell lysate,~32.5 µM
same,protein aggregation onset (scattering),[2]; UDG in the presence of ATA vs UDG alone,induced protein aggregation at lower temperatures than UDG alone
same,mean melting temperature of UDG in the presence of ATA,"[2]; nanoDSF, 330 nm, UDG alone 53.5 °C",51 °C
same,average maximum Tm change for UDG,[3]; absence of uracil containing DNA,~3.0 °C
same,change of Tm of UDG protein,[3]; with 1.0 mM uracil DNA hairpin,did not further change the Tm
